Laboratory results taken from patent US20230079107A1, “COMPOSITIONS AND METHODS FOR THE TREATMENT OF HUMAN IMMUNODEFICIENCY VIRUS” (Cidara Therapeutics, Inc., priority 2019, published 2023).
Where two headings read alike, the source gives them in different places.

Tests used:
Format in all cases: cell-based
in vitro = test: in vitro; design: TC50: unit not given beside the values; conditions: human
Experimental: (§1) In these studies, cytotoxicity was also evaluated (TC50). Test materials were derived by measuring the reduction of the tetrazolium dye XTT (2,3-bis(2-methoxy-4-nitro-5-sulfophenyl)-5-[(phenylamino)carbonyl]-2H-tetrazolium hydroxide). XTT in metabolically active cells is metabolized by the mitochondrial enzyme NADPH oxidase to a soluble formazan product. XTT solution was prepared daily as a stock of 1 mg/mL in RPMI-1640 without additives. Phenazine methosulfate (PMS) solution was prepared at 0.15 mg/mL in DPBS and stored in the dark at −20° C. XTT/PMS stock was prepared immediately before use by adding 40 μL of PMS per mL of XTT solution. 50 μL of XTT/PMS was added to each well of the plate and the plate incubated for 4 hours at 37° C. The 4 hour incubation has been empirically determined to be within the linear response range for XTT dye reduction with the indicated numbers of cells for each assay. The plates were sealed and inverted several times to mix the soluble formazan product and the plate was read at 450 nm (650 nm reference wavelength) with a Molecular Devices SpectraMax Plus 384 96 well plate format spectrophotometer.
as §1, with “Fifty L (50 μL)” for “50 μL”
as §1, with “studies” for “studies,”, “Fifty L (50 μL)” for “50 μL”
(§2) In these studies, cytotoxicity was also evaluated (TC50). Test materials were derived by measuring the reduction of the tetrazolium dye XTT (2,3-bis(2-methoxy-4-nitro-5-sulfophenyl)-5-[(phenylamino)carbonyl]-2H-tetrazolium hydroxide). XTT in metabolically active cells is metabolized by the mitochondrial enzyme NADPH oxidase to a soluble formazan product. XTT solution was prepared daily as a stock of 1 mg/mL in RPMI-1640 without additives.

[1] = system: HeLa-CD4-LTR-β-Gal and HL2/3 cells (cell viability); test: in vitro; design: TC50: unit not given beside the values; conditions: Example 36, Table 9, XTT
Experimental: as §1
as §1, with “Fifty L (50 μL)” for “50 μL”
as §1, with “studies” for “studies,”, “Fifty L (50 μL)” for “50 μL”
as §2

[2] = biological target: cell-cell fusion of HeLa-CD4-LTR-β-Gal and HL2/3 cells mediated by gp120 and CD4 interaction (UniProt P04578)
[3] = Example 19, Table 6, Run 3, XTT, read-out: TC50 [μM] Run 3
[4] = Example 33, Table 7, XTT, read-out: TC50 (nM) (Tox)
[5] = Example 19, Table 6, Run 1, XTT, read-out: TC50 [μM] Run 1
[6] = Example 11, Table 5, XTT, read-out: TC50 (the source's name)
[7] = Example 19, Table 6, Run 2, XTT, read-out: TC50 [μM] Run 2

Compound | CC50 (in vitro; [3]) [µM] | CC50 (in vitro; [4]) [µM] | CC50 (in vitro; [5]) [µM] | CC50 (in vitro; [6]) [µM] | also measured
C#CCOCCOCCOCCOCCC(=O)N(CCCNC(=O)c1ncn(-c2ncc(OC)c3c(C(=O)C(=O)N4CCC(=C(C#N)c5ccccc5)CC4)c[nH]c23)n1)C(CO)(CO)CO [Int-17] | > 10 | > 0.5 |  |  | 
C#CCOCCOCCOCCOCCC(=O)N(CC(=O)NCCOCCOCCOCCOCCOCCOCCOCCOCCOCCOCCOCCOC)CC(=O)NCCn1cc(COCCOCCOCCOCCNC(=O)c2ncn(-c3ncc(OC)c4c(C(=O)C(=O)N5CCC(=C(C#N)c6ccccc6)CC5)c[nH]c34)n2)nn1 [Int-25] |  | > 0.5 |  |  | TC50 [1]: >2000
C#CCOCCOCCOCCOCCN1CCN(CCCN2CCN(CCNC(=O)c3ncn(-c4ncc(OC)c5c(C(=O)C(=O)N6CCC(=C(C#N)c7ccccc7)CC6)c[nH]c45)n3)CC2)CC1 [Int-19] |  | > 0.5 |  |  | 
C#CCOCCOCCOCCC1CCN(CCNC(=O)c2ncn(-c3ncc(OC)c4c(C(=O)C(=O)N5CCC(=C(C#N)c6ccccc6)CC5)c[nH]c34)n2)CC1 [Int-11] |  |  | > 10 |  | 
C#CCOCCOCCOCCOCCNC(=O)COCc1ncn(-c2ncc(OC)c3c(C(=O)C(=O)N4CCN(C(=O)c5ccccc5)CC4)c[nH]c23)n1 [Int-5] |  |  | > 0.5 | > 0.5 | 
C#CCOCCOCCOCCOCCNC(=O)c1csc(-c2ncc(OC)c3c(C(=O)C(=O)N4CCN(C(=O)c5ccccc5)CC4)c[nH]c23)n1 [Int-9] |  |  | > 10 | > 10 | 
enfuvirtide |  | > 1 |  |  | TC50 [1]: >1,000
C#CCOCCOCCOCCOCCNC(=O)c1ncn(-c2ncc(OC)c3c(C(=O)C(=O)N4CCC(=C(C#N)c5ccccc5)CC4)c[nH]c23)n1 [Int-2] | > 10 |  |  |  | CC50 (in vitro; [7]): > 10 µM; fusion inhibition activity, in words [2]: highly active
C#CCOCCOCCNC(=N)NCCNC(=O)c1csc(-c2ncc(OC)c3c(C(=O)C(=O)N4CCC(=C(C#N)c5ccccc5)CC4)c[nH]c23)n1 [Int-3] |  |  | > 10 | > 10 | 
COc1cc(-c2ccc(/N=N/c3ccc4c(S(=O)(=O)O)cc(S(=O)(=O)O)c(N)c4c3O)c(OC)c2)ccc1/N=N/c1ccc2c(S(=O)(=O)O)cc(S(=O)(=O)O)c(N)c2c1O [CSB, Chicago Sky Blue, reference compound] | > 10 | > 10 | > 10 | > 10 | CC50 (in vitro; [7]): > 10 µM
C#CCOCCOCCOCCOCCNC(=O)c1ncn(-c2ncc(OC)c3c(C(=O)C(=O)N4CCN(C(=O)c5ccccc5)CC4)c[nH]c23)n1 [Int-20] |  | > 0.5 |  |  | 
C#CCOCCOCCOCCOCCN1CCN(CCCNC(=O)c2ncn(-c3ncc(OC)c4c(C(=O)C(=O)N5CCC(=C(C#N)c6ccccc6)CC5)c[nH]c34)n2)CC1 [Int-18] |  | > 0.5 |  |  | TC50 [1]: >2000
C#CCOCCOCCOCCOCCNC(=O)c1cn(-c2ncc(OC)c3c(C(=O)C(=O)N4CCC(=C(C#N)c5ccccc5)CC4)c[nH]c23)nn1 [Int-13] | > 10 |  |  |  | 
C#CCOCCOCCOCCOCCOc1cnc(-n2cnc(C)n2)c2[nH]cc(C(=O)C(=O)N3CCN(C(=O)c4ccccc4)CC3)c12 [Int-8] |  |  | > 10 | > 10 | 
C#CCOCCOCCOCCOCCN1CCN(CCCNC(=O)c2ncn(-c3ncc(OC)c4c(C(=O)C(=O)N5CCC(=C(C#N)c6ccccn6)CC5)c[nH]c34)n2)CC1 [Int-27] |  |  |  |  | TC50 [1]: >2000
C#CCOCCOCCOCCOCCN1CCN(CCCN2CCN(CCCNC(=O)c3ncn(-c4ncc(OC)c5c(C(=O)C(=O)N6CCC(=C(C#N)c7ccccc7)CC6)c[nH]c45)n3)CC2)CC1 [Int-22] |  | > 0.5 |  |  | TC50 [1]: >2000
C#CCOCCOCCOCCOCCC(=O)N[C@@H](CS(=O)(=O)O)C(=O)N1CCN(CCNC(=O)c2ncn(-c3ncc(OC)c4c(C(=O)C(=O)N5CCC(=C(C#N)c6ccccc6)CC5)c[nH]c34)n2)CC1 [Int-14] | > 10 |  |  |  | 
C#CCOCCOCCOCCOCCN1CCN(CCNC(=O)c2ncn(-c3ncc(OC)c4c(C(=O)C(=O)N5CCC(=C(C#N)c6ccccc6)CC5)c[nH]c34)n2)CC1 [Int-16] | > 10 |  |  |  | 
C#CCOCCOCCOCCOCCNC(=O)c1nc(-c2ncc(OC)c3c(C(=O)C(=O)N4CCC(=C(C#N)c5ccccc5)CC4)c[nH]c23)cs1 [Int-1] |  |  | > 10 | > 10 | 
C#CCOCCOCCOCCOCC(O)CNC(=O)c1nc(-c2ncc(OC)c3c(C(=O)C(=O)N4CCC(=C(C#N)c5ccccc5)CC4)c[nH]c23)cs1 (stereo not shown) [Int-4] |  |  |  |  | CC50 (in vitro; [7]): > 10 µM; fusion inhibition activity, in words [2]: highly active
C#CCOCCOCCOCCOCCC(=O)N(CCCNC(=O)c1ncn(-c2ncc(OC)c3c(C(=O)C(=O)N4CCC(=C(C#N)c5ccccc5)CC4)c[nH]c23)n1)CCS(=O)(=O)O [Int-15] | > 10 |  |  |  | 
C#CCOCCOCCOCCOCCC(=O)N(CCCNC(=O)CCOCCNC(=O)c1ncn(-c2ncc(OC)c3c(C(=O)C(=O)N4CCC(=C(C#N)c5ccccc5)CC4)c[nH]c23)n1)C(CO)(CO)CO [Int-12] | > 10 |  |  |  | 
C#CCOCCOCCOCCOCCN(CCCO)CCCN(CCCO)CCCNC(=O)c1ncn(-c2ncc(OC)c3c(C(=O)C(=O)N4CCC(=C(C#N)c5ccccc5)CC4)c[nH]c23)n1 [Int-26] |  |  |  |  | TC50 [1]: >2000
C#CCOCCOCCNC(=N)NCCNC(=O)c1csc(-c2ncc(OC)c3c(C(=O)C(=O)N4CCN(C(=O)c5ccccc5)CC4)c[nH]c23)n1 [Int-10] |  |  | > 10 | > 10 | 
COc1cnc(-n2cnc(COCC(=O)NCCOCCOCCOCCOCCOCCON)n2)c2[nH]cc(C(=O)C(=O)N3CCN(C(=O)c4ccccc4)CC3)c12 [Int-6] |  |  | > 0.5 | > 0.5 | 
C#CCOCCOCCOCCOCCC(=O)NCc1ncn(-c2ncc(OC)c3c(C(=O)C(=O)N4CCN(C(=O)c5ccccc5)CC4)c[nH]c23)n1 [Int-7] |  |  | > 0.5 | > 0.5 | 
